Measurements reported in patent US7115574B2, “System and method for support legacy operating system booting in a legacy-free system” (priority 2001, dated 2006).
Non-standard residues stand in square brackets, D forms with d. No end group written: not given here.

Assays:
[1] = test system: edema caused by intradermal injection of recombinant human IL-1β in the mouse ear; assay: IL-1β-induced ear edema with centrally administered α-MSH and receptor antagonists; assay type: in vivo, BALB/c mice
Procedure: See Macaluso, A., McCoy, D., Ceriani, G., Watanabe, T., Biltz, J., Catania, A., and Lipton, J. M., Anti-inflammatory Influences of a-MSH Molecules: Central Neurogenic and Peripheral Actions, 14(4), J. of Neuroscience 2377-2382 (1994). Female BALB/c mice (Simonsen Laboratories, Gilroy, Calif.), 7-8 weeks old, were housed at 23-25° C. in groups not exceeding five animals per cage [28 cm (L)×18 cm (W)×13 cm (H)]. Before the experiments they were acclimatized for not less than 1 week before experimentation to standard lighting and temperature conditions with food and water freely available.
Mice were anesthetized with 10% pentobarbital sodium solution (1 mg/mouse, 50 mg/ml, Nembutal sodium solution; Abbott Laboratories, North Chicago, Ill.). Baseline ear thickness measurements were taken with a spring-loaded micrometer (Swiss Precision Instruments, Los Angeles, Calif.). Ear thickness was expressed in centimeters and was measured at least twice at each time point. The average thickness of unstimulated ears was […]. Inflammation was induced by injecting 20 μl of recombinant human IL-1β (1500 U; Genzyme, Cambridge, Mass.) directly into the skin (intradermally) of one ear of each mouse using a 28 gauge needle (Hiltz et al., 1992). Measures of ear thickness were repeated 4 and 6 hr later, while the mice were under sodium pentobarbital anesthesia.
Several agents were administered at the time of ear challenge to pharmacologically block certain receptors: atropine (Sigma Chemical Co.; 150 μg i.p.), a muscarinic receptor blocker that acts on autonomic end-organ receptors, was chosen because of links between inflammation and modulation of pain and the finding that muscarinic antagonists increase pain threshold (Hartvig et al., 1989); phentolamine (Sigma; 150 μg i.p.) an agent that competes for occupancy of α-adrenergic receptors; propranolol (Sigma; 150 μg, i.p.; 30 μg, i.c.v.), a nonspecific competitive antagonist for β-adrenergic receptors.
Because of the size of the experiments and the requirement for several shipments of animals over time, several experiments were performed, each with complete treatment and control groups drawn from the same shipment of mice. Omnibus analysis of variance techniques (Dynastat, Washington, D.C.) were used to test overall differences among group means. Tukey's protected t test was used to compare individual means. Probability values of <0.05 were considered significant.

C. albicans = C. albicans colony forming units (candidacidal activity); assay type: cell-based; conditions: for relative potency in reducing C. albicans viability: FIG. 2, 10^−4M melanocortin peptides
Procedure: C. albicans (clinical isolate) was obtained from the collection of the Department of Microbiology, Ospedale Maggiore di Milano and maintained on Sabouraud's agar slants and periodically transferred to Sabouraud's agar plates and incubated for 48 hours at 28° C. To prepare a stationary growth phase yeast, a colony was taken from the agar plate and transferred into 30 ml Sabouraud-dextrose broth and incubated for 72 hours at 32° C. Cells were centrifuged and suspended in Hank's balanced salt solution (“HBSS”) to the desired concentration. Viability, determined by the exclusion of 0.01% methylene blue, remained >98%.
C. albicans (1×10^6/ml in HBSS) was incubated in the presence or absence or α-MSH(1-13) (SEQ ID NO: 3) or (11-13) (SEQ ID NO: 1) at concentrations in the range of 10^−15 M to 10^−6 M for 2 hours at 37° C. Cells were then washed in cold distilled water and diluted with HBSS to a concentration of 100 organisms/ml. One-ml aliquots were dispensed on blood agar plates and incubated for 48 hours at 37° C. Organism viability was estimated from the number of colonies formed.
In subsequent experiments using familiar procedures we compared activity of α-MSH(4-10) (SEQ ID NO: 10), (6-13) (SEQ ID NO: 2), (11-13) (SEQ ID NO: 1), ACTH(1-39) (SEQ ID NO: 9), (18-39) (SEQ ID NO: 11) and fluconazole, the latter an established antifungal agent. Melanocortin peptides and fluconazole were tested in concentrations of 10^−6 M to 10^−4 M. There were at least six replicates for each concentration of peptide. […]

[2] = test system: inflammation induced in the ear by picryl chloride application; assay: Picryl chloride-induced ear swelling; assay type: in vivo, BALB/C mice; conditions: for % Inhibition 3 h: 3 h after picryl chloride; for % Inhibition 6 h: 6 h after picryl chloride; for overall effect on inflammation (ANOVA): 10-80 μg IP, 3 and 6 h
Procedure: Hiltz, M. E., Catania, A., Lipton, J. M., Anti-Inflammatory Activity of aα-MSH (11-13) Analogs: Influence of Alteration in Stereochemistry, 12 Peptides 767 (1981). […] Female BALB/C mice (Simonsen Laboratories), 7 weeks old, were housed at 23-25° C. in groups of no more than 5 per cage [28 cm (L)×18 cm (W)×13 cm (H)]. They were allowed to acclimatize to standard lighting and temperature conditions for at least 1 week, with food and water available ad lib, before the experiment began. Five to ten animals were randomly assigned to each treatment group each test day, and all experiments were repeated at least twice to confirm reproducibility. To reduce error due to slight differences in responses to the irritant of animals from different shipments, tests of each agent were performed as separate experiments in which experimental and control animals were drawn from the same shipment.
In the experiments each animal was anesthetized with 1 mg of pentobarbital sodium solution ([…], Nembutal, Abbott Laboratories, Abbott park, Ill.). Baseline ear thickness was measured for both ears with a spring-loaded micrometer (Swiss Precision Instruments, Los Angeles, Calif.). Ear thickness was expressed in units of 10^−3 cm; the average thickness of unstimulated ears was approximately 25-30×10^−3 cm. After baseline measurements were taken, one of six solutions was injected IP. […] The doses of the tripeptides were 10 μg (2.6×.10^−8 M), 20 μg (5.2×.10^−8 M), 40 μg (1.04×.10^−7 M), and 80 μg (2.08×.10^−7 M). Immediately after saline or α-MSH injection, a micropipette was used to coat both sides of each ear with 10 μl […] of a 0.5% picryl chloride (Polysciences, Warrington, Pa.) solution in acetone.
Ear thickness was remeasured 3 and 6 h after picryl chloride application. Swelling was determined by subtracting baseline thickness from the measurements for each ear at 3 and 6 h. The differences for both ears were then averaged for the final analysis.
Repeated-measure ANOVA techniques were used to determine if there was an overall difference among group data for each peptide tested in separate experiments. In those cases in which the ANOVA yielded significant results, Dunnett's test was then used to compare the effects of peptide doses with control (saline) data for each of the two time periods, 3 and 6 h.

[3] = test system: carrageenan-induced swelling in rat paws; assay: Rat paw edema test (carrageenan); assay type: in vivo, Sprague-Dawley rats; conditions: 100 mg/kg intraperitoneal, rats
Procedure: A second in vivo bioassay for anti-inflammatory activity was conducted in which the action of the tripeptide (SEQ ID NO: 1) was compared to that of hydrocortisone. In this assay, the two agents were given at similar doses and tested for their independent ability to inhibit carrageenan-induced swelling in rat paws. This assay, the rat paw edema test, was conducted generally as it is typically performed in the art, for example, as described by Winter et al. (1962), Proc. Soc. Exp. Biol. Med., 111:544 or in U.S. Pat. No. 4,150,137.
Briefly, the assay was performed as follows. Each of twenty-four male Sprague-Dawley rats was assigned to one of four groups: Tripeptide treatment and controls (matched according to body weight and initial paw volume), hydrocortisone treatment and matched controls. The volume of the right rear paw of the test and control animals was determined using standard procedures and a mercury displacement volumetric technique. […] One hour later 0.5 ml of 1% lambda carrageenan in saline solution was injected into the right rear paw of the animals and the paw volume was again recorded (baseline measure). For comparison of the effects of the two treatments, paw volume of experimental animals measured at hourly intervals was expressed as a percentage of the volume change of their respective matched controls.

[4] = antagonist administered intraperitoneally

Row | Compound | effect of antagonist on the anti-inflammatory influence of centrally administered α-MSH(1-13) [1, 4] | % Inhibition 3 h ([2]; 10 μg IP) [%] | % Inhibition 6 h ([2]; 10 μg IP) [%] | % Inhibition 3 h ([2]; 20 μg IP) [%] | % Inhibition 6 h ([2]; 20 μg IP) [%] | % Inhibition 3 h ([2]; 40 μg IP) [%] | % Inhibition 6 h ([2]; 40 μg IP) [%] | % Inhibition 3 h ([2]; 80 μg IP) [%] | % Inhibition 6 h ([2]; 80 μg IP) [%] | overall effect on inflammation (ANOVA) [2] | further results
1 | Cc1ccc(N(CC2=NCCN2)c2cccc(O)c2)cc1 [phentolamine] | did not alter |  |  |  |  |  |  |  |  |  | 
2 | ACTH(1-39): adrenocortitrophic hormone (ACTH) peptide 1-39 (SYSMEHFRWGKPVGKKRRPVKVYPAGEDDEASEAFPLEF; listed as Homo sapiens) [reference compound] |  |  |  |  |  |  |  |  |  |  | relative potency in reducing C. albicans viability (C. albicans): did not reduce
3 | VPK-Ac-CC-Ac-KPV (Ac-CKPV; also: disulfide dimer via Cys) |  |  |  |  |  |  |  |  |  |  | effectiveness against microbes relative to α-MSH(11-13) (C. albicans): at least as effective as α-MSH(11-13); C. albicans colony forming units (CFU) (C. albicans; FIG. 1, incubation 2 hours at 37° C.): inhibited
4 | Ac-[D-Val^13]α-MSH(11-13)-NH2 (Ac-Lys-Pro-[dV]-NH2; SMILES CC(=O)N[C@@H](CCCCN)C(=O)N1CCC[C@H]1C(=O)N[C@@H](C(N)=O)C(C)C) [Ac-[D-Pro^13]α-MSH(11-13)-NH2] |  | 24 | 23 | 48 | 54 | 39 | 45 | 41 | 29 | marked inhibitory influence | 
5 | Ac-[D-Lys^11, D-Val^13]α-MSH(11-13)-NH2 (Ac-[dK]-Pro-[dV]-NH2; SMILES CC(=O)N[C@H](CCCCN)C(=O)N1CCC[C@H]1C(=O)N[C@@H](C(N)=O)C(C)C) |  | 22 | 22 | 55 | 46 | 42 | 41 | 40 | 44 | significant overall reduction in inflammation | 
6 | Ac-[D-Lys^11]α-MSH(11-13)-NH2 (Ac-[dK]-Pro-Val-NH2; SMILES CC(=O)N[C@H](CCCCN)C(=O)N1CCC[C@H]1C(=O)N[C@H](C(N)=O)C(C)C) |  | 23 | 17 | 25 | 16 | 35 | 37 | 34 | 29 | significantly reduced inflammation | 
7 | CC(C)NCC(O)COc1cccc2ccccc12 (stereo not drawn) [propranolol] | inhibited |  |  |  |  |  |  |  |  |  | effect of antagonist on the anti-inflammatory influence of centrally administered α-MSH(1-13) ([1]; antagonist injected centrally): little effect
8 | C[C@]12CCC(=O)C=C1CC[C@@H]1[C@@H]2[C@@H](O)C[C@@]2(C)[C@H]1CC[C@]2(O)C(=O)CO [hydrocortisone, reference compound] |  |  |  |  |  |  |  |  |  |  | anti-inflammatory activity (inhibition of paw edema) ([3]; between 1 and 4 hours): nearly identical anti-inflammatory activity; decrease in paw inflammation ([3]; first hour after carrageenan injection): ~30%
9 | ACTH(18-39): ACTH fragment (18-39) (CLIP) (RPVKVYPAGEDDEASEAFPLEF; Designed polypeptide with anti-inflammatory, anti-microbial, anti-fungal, and anti-viral properties.) [reference compound] |  |  |  |  |  |  |  |  |  |  | relative potency in reducing C. albicans viability (C. albicans): did not reduce
10 | CC(C)NCC(O)COc1ccc(CC(N)=O)cc1 (stereo not drawn) [atenolol] | little inhibition |  |  |  |  |  |  |  |  |  | 
11 | COc1ccc(OC)c(C(O)C(C)NC(C)(C)C)c1 (stereo not drawn) [butoxamine] | significantly reduced |  |  |  |  |  |  |  |  |  | 
12 | Ac-[D-Pro^12]α-MSH(11-13)-NH2 (Ac-Lys-[dP]-Val-NH2; SMILES CC(=O)N[C@@H](CCCCN)C(=O)N1CCC[C@@H]1C(=O)N[C@H](C(N)=O)C(C)C) |  | 4 | 8 | 11 | 5 | 10 | 8 | 8 | 6 | no significant effect on inflammation | 
13 | CN1[C@@H]2CC[C@H]1C[C@@H](OC(=O)C(CO)c1ccccc1)C2 (stereo partly drawn) [atropine] | did not alter |  |  |  |  |  |  |  |  |  | 
